Assay results published in article PMC10314922, “Fluorescence lifetime FRET assay for live-cell high-throughput screening of the cardiac SERCA pump yields multiple classes of small-molecule allosteric modulators” (Scientific Reports, 2023).
Where “and” joins values, the source holds several entries; their conditions need not be identical. Equal entries are not always repeated. Entries after “also recorded” stand apart in the source; their conditions may differ.

How the values were obtained:
[1] = target: T1, human two-color SERCA2a (2CS) biosensor (Homo sapiens, UniProt P16615, INS508[…]); experiment: FRET concentration response curves (FLT-FRET) with the 2CS biosensor in live HEK cells; assay type: cell-based
T1 construct: expressed in transfected cells
Description: A two-color intramolecular human SERCA2a (2CS) biosensor, based on human cardiac SERCA2a fused to green fluorescent protein (eGFP) and red fluorescent protein (tagRFP) was developed to detect structural changes that are related to the functional changes of SERCA[20],[22],[25]. Briefly, tagRFP was genetically fused to the N-terminus of SERCA (A-domain) and eGFP was inserted as an intrasequence tag before residue 509 in the nucleotide-binding domain (N-domain)[60],[61]. Donor-only and acceptor-only (1CS) biosensors were created in a similar manner as the 2CS biosensor but with the construct containing either only eGFP or only tag-RFP, respectively. […] A null-biosensor construct consisting of eGFP and tagRFP connected by a 32-residue unstructured flexible linker peptide (G32R) was created as described previously[23],[25]. All constructs were cloned into expression vectors containing the genes for antibiotic resistance to G418, puromycin, or blasticidin.
Stable cell lines were generated using either human embryonic kidney (HEK) HEK293 (ATCC, Manassas, VA) or HEK293-6E (National Research Council, Canada) cells. Briefly, cells were transiently transfected with 2CS, 1CS, or G32R null-biosensor plasmids using Lipofecatime 3000 or 293fectin (Thermo Fisher Scientific). Flow cytometry was used to select and enrich for the population of cells expressing respective biosensors. Stable HEK293 cell lines were maintained in phenol red-free DMEM media (Gibco, Waltham, MA) supplemented with 2 mM GlutaMAX (Gibco, Waltham, MA), 10% fetal bovine serum (FBS) (Atlanta Biologicals, Lawrenceville, GA), 1 IU/mL penicillin/streptomycin (Gibco, Waltham, MA), and 250 μg/mL G418 (Fisher Scientific). Stable HEK293-6E cell lines were maintained in F17 media (Sigma Aldrich) supplemented with Kolliphor p188 (Sigma Aldrich, St. Louis, MO), […] GlutaMAX, and either 1 μg/mL puromycin (Invitrogen, Carlsbad, CA) or 2 μg/mL blasticidin (Goldbio) as a selection antibiotic. All cell lines were grown at 37 °C with 5% CO2.
FRET CRC assay plates (0.78–100 μM compound range) with at least ten different compound concentrations were made by adding the appropriate volume of compound or DMSO into black 384 well plates (Greiner Bio-One) using a Mosquito HV (SPTLabTech, United Kingdom). Subsequent Ca^2+-ATPase activity and Ca^2+-transport CRC assay plates (0–50 μM compound range) with repurchased compounds were made in a similar manner using with the Echo 550 (Beckman Coulter) using either 384 well transparent plates (Greiner Bio-One) or black-walled plates with transparent bottoms (Greiner Bio-One), respectively.
On each day of screening, cells were harvested, washed three times with PBS, and centrifuged at 300 g for 5 min. Cells were filtered using a 70 µm cell strainer and diluted to 1–2 × 10^6 cells/mL. Cell concentration and viability were assessed using the Cell countess (Invitrogen) and trypan blue assay. During assays, cells were constantly and gently stirred using a magnetic stir bar at room temperature, keeping the cells in suspension and evenly distributed to avoid clumping. HEK 293-cells expressing 2CS were dispensed at 5 μL or […] per well into assay plates (dispensed into 40 assay plates, each containing 1536 wells) pre-plated with compounds (from a DIVERset 50,000 compound library) using a Multdrop Combi liquid dispenser (Thermo Fisher Scientific, Pittsburg, PA) and sealed until needed. Because the kinetics of membrane permeability, diffusion, and/or binding of the compound to live cells may be compound-dependent, we tested two incubation times, 20 min and 120 min, for the FRET CRC. […] Plates containing eight-point concentration curves of three tool compounds (known SERCA effectors thapsigargin, BHQ, and CPA)[22] were used as positive controls for biosensor function and performance prior to running the full-scale FRET-HTS assay. […]

SERCA2a [2] = target: T2, SERCA2a (Sus scrofa, UniProt P11607); experiment: NADH-linked Ca2+-ATPase activity assay in pig cardiac SR (pCSR) vesicles; assay type: biochemical; conditions: for Ca2+-ATPase C10: concentration yielding 10% effect; for Ca2+-ATPase ΔFMAX / Ca2+-ATPase ΔFMID: maximal compound effect vs DMSO control, pCSR; for Effect on Ca2+-ATPase activity (category, Fig. 4A): activators, categories activate / uncouple / inhibit
T2 construct: Cardiac SR vesicles were isolated from fresh porcine left ventricular tissue using differential centrifugation; from tissue; host or cells: porcine left ventricular tissue (cardiac SR vesicles)
Procedure: (§1) Cardiac SR vesicles were isolated from fresh porcine left ventricular tissue using differential centrifugation of the homogenized tissue as previously described. The SR vesicles were flash-frozen and stored at − 80 °C until needed. The SERCA concentration in the ER preparations purified from HEK cell homogenate is at least 10 times less than in purified porcine cardiac SR[20], but there was sufficient expression of the fluorescent SERCA2a biosensor in HEK cells to detect FRET with high precision by FLT[22],[23],[26].
Functional assays were performed using porcine cardiac SR (pCSR) vesicles. An enzyme-coupled, NADH-linked ATPase assay was used to measure SERCA ATPase activity in 384-well microplates. Each well contained 50 mM MOPS (pH 7.0), 100 mM KCl, 1 mM EGTA, 0.2 mM NADH, 1 mM phosphoenol pyruvate, 10 IU/mL of pyruvate kinase, 10 IU/mL of lactate dehydrogenase, 7 µM of the calcium ionophore A23187 (Sigma), and CaCl2 was added to set free [Ca^2+] to three different concentrations. Ca^2+-ATPase activity was measured at three [Ca^2+]: [Ca^2+]MAX (saturating, pCa 5.4), [Ca^2+]MID (subsaturating, midpoint, pCa 6.2), and [Ca^2+]BAS (basal non-activating, pCa 8.0). 10 μg/mL of SR vesicle, calcium, compound (0.048 to 50 μM), and assay mix were incubated for 20 min at room temperature before measurement of functional assays with each of the 18 hit compounds, because a shorter incubation time than the FRET live-cell assays achieved optimal responses. The assay was started upon the addition of MgATP, at a final concentration of 5 mM (total volume to 80 μL), and absorbance was read at 340 nm in a SpectraMax Plus^384 microplate spectrophotometer (Molecular Devices, Sunnyvale, CA).
(§2) SERCA2a activity, F (rate of ATP hydrolysis or Ca^2+ uptake), was measured at varying pCa and varying compound concentration. F measured at [Ca^2+]MAX (saturating, pCa 5.4) or [Ca^2+]MID (subsaturating, midpoint, pCa 6.2) was corrected by subtracting the basal rate at pCa 8.0) and the % effect due to compound was reported. Concentration response curves (CRC) were fitted using the Hill function to determine VMAX (the activity at saturating [compound]), and EC50, the compound concentration at 50% effect.

SERCA2a [3] = target: T2, SERCA2a; experiment: Oxalate-supported Fluo-4 Ca2+-uptake (Ca2+-transport) assay in pig cardiac SR (pCSR) vesicles; assay type: biochemical; conditions: for Ca2+-Uptake C10: concentration yielding 10% effect; for CR (coupling ratio) VU/VA: maximum Ca2+-uptake rate / Ca2+-ATPase rate at [Ca2+]MAX, DMSO control = 0.66; for Inhibition of Ca2+-uptake (class): strong / moderate / mild; for Ca2+-Uptake ΔFMAX / Ca2+-Uptake ΔFMID: maximal compound effect vs DMSO control, pCSR; for Effect on Ca2+-uptake (category, Fig. 4A): activators, categories activate / uncouple / inhibit; for Increase in Ca2+-uptake: over [Ca2+]MAX and [Ca2+]MID; for Decrease (inhibition) of Ca2+-uptake at [Ca2+]MAX: size of decrease
Procedure: as §1
Ca^2+-transport assays were performed with similar porcine SR samples as in the Ca^2+-ATPase assays described above. The compound effect on the Ca^2+-transport activity of SERCA2a was determined using an oxalate-supported assay in which the change in fluorescence in a Ca^2+-sensitive dye, Fluor-4, was determined as previously described. A buffered solution containing 50 mM MOPS (pH 7.0), 100 mM KCl, 30 mg/mL sucrose, 1 mM EGTA, 10 mM potassium oxalate, 2 µM Fluo-4, 30 µg/mL porcine cardiac SR vesicles, CaCl2 calculated to reach the free [Ca^2+] (pCa 8.0, 6.2, and 5.4), and compound (0.048 to 50 μM) was dispensed into 384-well black walled, transparent bottomed plates (Greiner Bio-One) containing the tested small molecule and incubated at 22℃ for 20 min while covered and protected from light. To start the reaction, MgATP was added to a final concentration of 5 mM, and the decrease in 485-nm excited fluorescence of Fluo-4 was monitored at 520 nm for 15 min using a FLIPR Tetra (Molecular Devices, San Jose, CA).
as §2

T2 sequence (P11607 1-997 isoform P11607-2): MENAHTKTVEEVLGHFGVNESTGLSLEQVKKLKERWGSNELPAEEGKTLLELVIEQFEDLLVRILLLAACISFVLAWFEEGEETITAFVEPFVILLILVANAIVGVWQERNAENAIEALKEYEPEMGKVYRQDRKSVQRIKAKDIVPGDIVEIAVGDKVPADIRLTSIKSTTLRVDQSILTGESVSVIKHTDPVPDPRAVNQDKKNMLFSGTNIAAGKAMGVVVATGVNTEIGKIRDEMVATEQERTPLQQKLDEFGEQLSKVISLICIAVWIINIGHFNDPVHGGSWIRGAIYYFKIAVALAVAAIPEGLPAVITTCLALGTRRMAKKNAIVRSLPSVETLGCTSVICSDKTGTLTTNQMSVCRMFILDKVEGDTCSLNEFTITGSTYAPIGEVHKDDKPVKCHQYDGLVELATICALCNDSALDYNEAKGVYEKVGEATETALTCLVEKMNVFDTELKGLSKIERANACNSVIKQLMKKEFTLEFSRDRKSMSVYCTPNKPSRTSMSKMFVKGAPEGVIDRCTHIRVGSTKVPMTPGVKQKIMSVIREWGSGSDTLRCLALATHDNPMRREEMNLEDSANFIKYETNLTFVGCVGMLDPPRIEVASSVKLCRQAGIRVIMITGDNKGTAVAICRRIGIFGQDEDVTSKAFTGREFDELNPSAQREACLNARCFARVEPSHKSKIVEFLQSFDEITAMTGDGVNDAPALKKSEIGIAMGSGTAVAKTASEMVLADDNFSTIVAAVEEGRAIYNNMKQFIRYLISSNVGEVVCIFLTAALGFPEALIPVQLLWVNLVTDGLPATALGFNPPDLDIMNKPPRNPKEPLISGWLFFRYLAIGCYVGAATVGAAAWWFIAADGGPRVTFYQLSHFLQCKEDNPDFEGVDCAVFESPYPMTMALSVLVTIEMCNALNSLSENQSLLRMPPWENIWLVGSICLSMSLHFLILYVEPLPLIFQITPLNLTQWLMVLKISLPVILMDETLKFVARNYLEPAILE
T1 sequence (P16615 other isoform, or with tags, fused parts or gaps with the stated changes): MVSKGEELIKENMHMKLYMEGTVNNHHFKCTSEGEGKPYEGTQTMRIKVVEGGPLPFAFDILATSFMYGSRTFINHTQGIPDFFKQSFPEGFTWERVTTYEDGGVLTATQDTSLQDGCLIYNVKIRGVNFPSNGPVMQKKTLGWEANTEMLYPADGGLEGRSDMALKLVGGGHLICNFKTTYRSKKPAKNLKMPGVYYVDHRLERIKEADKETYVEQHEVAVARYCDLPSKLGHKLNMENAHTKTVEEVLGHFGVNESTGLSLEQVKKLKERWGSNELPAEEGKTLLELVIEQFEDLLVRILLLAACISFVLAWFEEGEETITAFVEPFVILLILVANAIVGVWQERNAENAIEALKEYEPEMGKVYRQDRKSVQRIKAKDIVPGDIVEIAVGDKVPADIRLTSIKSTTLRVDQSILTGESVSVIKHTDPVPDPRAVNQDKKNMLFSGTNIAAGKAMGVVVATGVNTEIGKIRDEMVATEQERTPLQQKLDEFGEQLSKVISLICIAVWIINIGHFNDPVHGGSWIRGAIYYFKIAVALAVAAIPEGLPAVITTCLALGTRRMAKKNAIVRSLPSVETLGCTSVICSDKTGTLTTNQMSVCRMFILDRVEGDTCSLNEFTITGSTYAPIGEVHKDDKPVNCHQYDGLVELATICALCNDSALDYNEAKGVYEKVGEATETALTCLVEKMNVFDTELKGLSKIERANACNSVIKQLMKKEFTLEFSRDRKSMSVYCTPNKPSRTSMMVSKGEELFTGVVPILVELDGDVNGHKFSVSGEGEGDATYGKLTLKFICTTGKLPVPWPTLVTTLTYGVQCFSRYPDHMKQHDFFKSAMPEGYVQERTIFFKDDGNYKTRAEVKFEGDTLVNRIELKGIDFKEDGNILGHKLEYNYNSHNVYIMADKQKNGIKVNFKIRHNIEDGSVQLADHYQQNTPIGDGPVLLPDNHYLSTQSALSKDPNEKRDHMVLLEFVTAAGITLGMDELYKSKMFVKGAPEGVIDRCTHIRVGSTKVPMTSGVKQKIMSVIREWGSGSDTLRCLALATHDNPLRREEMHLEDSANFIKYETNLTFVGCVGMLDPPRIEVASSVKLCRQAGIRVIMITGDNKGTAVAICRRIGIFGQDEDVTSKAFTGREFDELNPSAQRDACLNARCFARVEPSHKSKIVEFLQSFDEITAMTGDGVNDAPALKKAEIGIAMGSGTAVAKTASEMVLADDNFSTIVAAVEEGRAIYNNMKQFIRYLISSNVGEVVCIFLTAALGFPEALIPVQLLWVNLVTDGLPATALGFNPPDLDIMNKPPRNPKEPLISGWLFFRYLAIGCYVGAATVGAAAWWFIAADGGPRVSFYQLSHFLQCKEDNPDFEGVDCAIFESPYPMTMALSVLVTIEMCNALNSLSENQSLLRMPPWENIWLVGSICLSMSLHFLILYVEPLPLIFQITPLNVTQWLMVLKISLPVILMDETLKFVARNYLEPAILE

Row | Structure (SMILES) | EC50 [1] | Ca2+-ATPase C10 (SERCA2a [2]; [Ca2+]MAX (pCa5.4)) | Ca2+-ATPase C10 (SERCA2a [2]; [Ca2+]MID (pCa6.2)) | Ca2+-Uptake C10 (SERCA2a [3]; [Ca2+]MAX (pCa5.4)) | Ca2+-Uptake C10 (SERCA2a [3]; [Ca2+]MID (pCa6.2)) | CR (coupling ratio) VU/VA (SERCA2a [3]) | Inhibition of Ca2+-uptake (class) (SERCA2a [3]) | Ca2+-ATPase ΔFMAX (SERCA2a [2]; [Ca2+]MAX (pCa5.4)) | Ca2+-ATPase ΔFMID (SERCA2a [2]; [Ca2+]MID (pCa6.2)) | Effect on Ca2+-ATPase activity (category, Fig. 4A) (SERCA2a [2]) | Ca2+-Uptake ΔFMAX (SERCA2a [3]; [Ca2+]MAX (pCa5.4)) | Ca2+-Uptake ΔFMID (SERCA2a [3]; [Ca2+]MID (pCa6.2)) | Effect on Ca2+-uptake (category, Fig. 4A) (SERCA2a [3]) | Increase in Ca2+-uptake (SERCA2a [3]) | Increase in Ca2+-ATPase activity (SERCA2a [2]) | EC50 (SERCA2a [2]; [Ca2+]MAX (pCa5.4)) | Decrease (inhibition) of Ca2+-uptake at [Ca2+]MAX (SERCA2a [3])
1 | CCc1cnc(N2CC[C@@H](c3ccc4ccccc4c3)[C@H](O)C2)nc1 (relative stereo) [Compound 16, (3S*,4S*)-1-(5-ethylpyrimidin-2-yl)-4-(2-naphthyl)piperidin-3-ol] | 5.6 ± 0.3 µM | 0.5 µM | 4.7 µM | 1.2 µM | 4.2 µM | 0.22 | M → S; also recorded: moderate-to-strong | – | – | – | – | – | – | – | – | – | –
2 | O=C(c1cc(COc2ccc3ncccc3c2)on1)N1CCC(c2ccncc2)CC1 [Compound 2, 6-[(3-{[4-(4-pyridinyl)-1-piperidinyl]carbonyl}-5-isoxazolyl)methoxy]quinoline] | 1.4 ± 0.5 µM | 48 µM | – | – | – | 0.53 | – | 16% and 16 ± 3% | 7% and 7 ± 3% | activate | 4 ± 6.1% | 4 ± 2.1% | uncouple | 0.5–10% | – | – | –
3 | O=C(c1cc(COc2ccc3c(c2)CCCC3)on1)N1CCC(c2ccncc2)CC1 [Compound 3, 4-[1-({5-[(5,6,7,8-tetrahydro-2-naphthalenyloxy)methyl]-3-isoxazolyl}carbonyl)-4-piperidinyl]pyridine] | 1.6 ± 0.2 µM | 11.0 µM | 14.8 µM | 17.5 µM | – | 0.39 | – | 21 ± 5.1% | 30 ± 11% | activate | – | 6% and 6 ± 3.3% | inhibit | – | 10–25% | 8.4 ± 3.1 µM | 20%
4 | COc1ccc(Cc2noc(CN3CCN(c4nc5ccccc5s4)CC3)n2)cc1OC [Compound 5, 2-(4-{[3-(3,4-dimethoxybenzyl)-1,2,4-oxadiazol-5-yl]methyl}-1-piperazinyl)-1,3-benzothiazole] | 1.5 ± 0.1 µM | 22.7 µM | 19.6 µM | – | 22.5 µM | 0.47 | – | 25% and 25 ± 3.3% | 35% and 35 ± 8.2% | activate | – | 20% and 20 ± 3.3% | inhibit | – | 10–25% | – | 2%
5 | CC1Cc2cc(CNC(=O)c3cc(C(C)C)nn3C)ccc2O1 (stereo not drawn) [Compound 9, 3-isopropyl-1-methyl-N-[(2-methyl-2,3-dihydro-1-benzofuran-5-yl)methyl]-1H-pyrazole-5-carboxamide] | 0.6 ± 0.1 µM | 30.7 µM | – | – | – | 0.51 | – | 21% and 21 ± 5% | 10% and 10 ± 6% | activate | 5 ± 2.2% | 3 ± 2.4% | uncouple | 3–5% and 0.5–10% | – | 24 ± 9 µM | –
6 | COc1ccc(Cn2cc(C(=O)N(C)Cc3ccnc4ccccc34)nn2)cc1 [Compound 10, 1-(4-methoxybenzyl)-N-methyl-N-(4-quinolinylmethyl)-1H-1,2,3-triazole-4-carboxamide] | 5.6 ± 0.6 µM | 7 µM | 3.2 µM | 4.1 µM | 7.9 µM | 0.35 | Mild → M; also recorded: mild-to-moderate | – | – | – | – | – | – | – | – | – | –
